Reference: patent publication US10221163B2 (priority 2015, dated 2019)
Where two headings read alike, the source gives them in different places.

Tests used:
IMP-1 = IMP-1 (Serratia marcescens, UniProt P52699); assay: biochemical; assay type: biochemical; settings: fluorescence assay, CCF2-FA substrate, 2 pM enzyme, 2 hours at 25° C.; read-out: IMP-1 IC50
How it was run: (§1)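 IC50 values derive from 4-parameter fits of percent inhibition against inhibitor concentration on semi-log axes. Activity was monitored by fluorescence with the CCF2-FA substrate after a 2-hour, 25° C incubation of compound, enzyme and substrate.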

NDM-1 = NDM-1 (Klebsiella pneumoniae, UniProt C7C422); assay: biochemical; assay type: biochemical; settings: fluorescence assay, CCF2-FA substrate, 1 pM enzyme, 2 hours at 25° C.; read-out: NDM-1 IC50
How it was run: as §1

VIM-1 = VIM-1 (Pseudomonas aeruginosa (strain ATCC 15692 / DSM 22644 / CIP 104116 / JCM 14847 / LMG 12228 / 1C / PRS 101 / PAO1), UniProt A0A0F7KYQ8); assay: biochemical; settings: CCF2-FA substrate, 30 pM enzyme, 2 hours at 25° C.
How it was run: as §1

[1] = test system: Escherichia coli expressing NDM-1 (CLB30005, CLB30016); assay type: cell-based; settings: with imipenem 1 μg/ml; 95% inhibition of bacterial growth
How it was run: (§2)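 Growth by absorbance after 22–24 h at 35°C defined the read-out, with imipenem fixed at 1 μg/ml alongside compound. Inocula came from overnight blood-agar colonies at 35°C, resuspended in saline and diluted 1:100 in 1.1×CAMHB.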

[2] = test system: Klebsiella pneumoniae expressing VIM-1 (IHMA599644); assay type: cell-based; settings: with imipenem 1 μg/ml; 95% inhibition of bacterial growth
How it was run: as §2

[3] = test system: Serratia marcescens expressing IMP-1 (CL5741); assay type: cell-based; settings: with imipenem 1 μg/ml; 95% inhibition of bacterial growth
How it was run: as §2

[4] = test system: Pseudomonas aeruginosa efflux+ (MB9798), IMP-1; assay type: cell-based; settings: concentration restoring susceptibility to imipenem at 2 μg/mL in the presence of a class A, C, D serine β-lactamase inhibitor closely related to relebactam
How it was run: (§3)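 P. aeruginosa PAO1-derived IMP-1 strains, efflux+ MB9798 and efflux− MB9799, tested by standard microbroth MIC with imipenem and/or ceftazidime fixed, usually at CLSI breakpoint, plus fixed class A/C β-lactamase inhibitor against AmpC. Inhibitor titrated; concentration restoring susceptibility recorded; MB9798/MB9799 fold difference indicates efflux.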

[5] = test system: Pseudomonas aeruginosa efflux− (MB9799), IMP-1; assay type: cell-based; settings: concentration restoring susceptibility to imipenem at 2 μg/mL in the presence of a class A, C, D serine β-lactamase inhibitor closely related to relebactam
How it was run: as §3

[6] = test system: Pseudomonas aeruginosa MB9798 vs MB9799; settings: ratio MITC95 PA_9798/MITC95 PA_9799
How it was run: as §3

[7] = fluorescence assay, read-out: VIM-1 IC50

Chain of NDM-1 (C7C422 whole entry, looked up, species assumed): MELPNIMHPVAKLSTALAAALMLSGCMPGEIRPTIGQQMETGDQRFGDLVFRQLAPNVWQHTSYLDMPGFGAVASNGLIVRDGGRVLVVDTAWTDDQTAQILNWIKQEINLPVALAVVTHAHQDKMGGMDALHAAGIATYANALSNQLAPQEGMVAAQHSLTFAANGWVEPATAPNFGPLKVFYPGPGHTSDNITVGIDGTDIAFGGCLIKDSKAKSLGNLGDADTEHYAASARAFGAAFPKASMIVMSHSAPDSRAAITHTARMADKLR
Chain of IMP-1 (P52699 whole entry, looked up, species assumed): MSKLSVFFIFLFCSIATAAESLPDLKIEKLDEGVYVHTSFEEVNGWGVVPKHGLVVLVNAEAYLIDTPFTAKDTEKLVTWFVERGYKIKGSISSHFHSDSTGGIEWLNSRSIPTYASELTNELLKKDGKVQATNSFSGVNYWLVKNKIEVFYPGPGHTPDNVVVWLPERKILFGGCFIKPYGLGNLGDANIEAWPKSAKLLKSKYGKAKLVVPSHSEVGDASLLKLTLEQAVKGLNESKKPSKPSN

Row | Compound | IC50 (IMP-1) | IC50 (NDM-1) | IC50 (VIM-1; [7]) | Escherichia coli expressing NDM-1 (CLB30016) MITC95 [1] | Klebsiella pneumoniae expressing VIM-1 (IHMA599644) MITC95 [2] | Serratia marcescens expressing IMP-1 (CL5741) MITC95 [3] | P. aeruginosa expressing IMP-1, efflux + (MB9798) MITC95 [4] | P. aeruginosa expressing IMP-1, efflux − (MB9799) MITC95 [5] | Efflux ratio [6] | IC50 (VIM-1; VIM-1 IC50, fluorescence assay)
1 | Nc1nc2c(-c3ccc(S(=O)(=O)NCc4ccccn4)c(S(N)(=O)=O)c3-c3nnn[nH]3)cccc2s1.O=C(O)C(F)(F)F [Example 106, 2-((4-(2-aminobenzo[d]thiazol-4-yl)-2-sulfamoyl-3-(1H-tetrazol-5-yl)phenylsulfonamido)methyl)pyridin-1-ium 2,2,2-trifluoroacetate] | 0.379 nM | 0.0733 nM | 0.236 nM | 6.25 µM | 12.5 µM | 3.125 µM | 12.5 µM | 3.125 µM | 4.00 | –
2 | CN1CC(N(C)S(=O)(=O)c2ccc(-c3cccc4sc(N)nc34)c(-c3nnn[nH]3)c2S(N)(=O)=O)C1.O=C(O)C(F)(F)F [Example 107, 3-(4-(2-aminobenzo[d]thiazol-4-yl)-N-methyl-2-sulfamoyl-3-(1H-tetrazol-5-yl)phenylsulfonamido)-1-methylazetidin-1-ium 2,2,2-trifluoroacetate] | 1.4 nM | 0.184 nM | 1.69 nM | 3.125 µM | 6.25 µM | 3.125 µM | 6.25 µM | 1.563 µM | 4.00 | –
3 | CO[C@H]1CNC[C@@H]1NS(=O)(=O)c1ccc(-c2cccc3sc(N)nc23)c(-c2nnn[nH]2)c1S(N)(=O)=O.O=C(O)C(F)(F)F [Example 108, (3S,4S)-3-(4-(2-aminobenzo[d]thiazol-4-yl)-2-sulfamoyl-3-(1H-tetrazol-5-yl)phenylsulfonamido)-4-methoxypyrrolidin-1-ium 2,2,2-trifluoroacetate] | 0.336 nM | 0.0512 nM | 0.268 nM | 1.563 µM | 3.125 µM | 3.125 µM | 1.563 µM | 1.563 µM | 1.00 | –
4 | CC(N)CNS(=O)(=O)c1ccc(-c2cccc3sc(N)nc23)c(-c2nnn[nH]2)c1S(N)(=O)=O.O=C(O)C(F)(F)F (stereo not drawn) [Example 109, 1-(4-(2-aminobenzo[d]thiazol-4-yl)-2-sulfamoyl-3-(1H-tetrazol-5-yl)phenylsulfonamido)propan-2-aminium 2,2,2-trifluoroacetate] | 0.44 nM | 0.0821 nM | – | 1.563 µM | 3.125 µM | 1.563 µM | 0.7813 µM | 1.563 µM | 0.50 | 0.322 nM
5 | NCC1CCCCN1S(=O)(=O)c1ccc(-c2cccc3sc(N)nc23)c(-c2nnn[nH]2)c1S(N)(=O)=O.O=C(O)C(F)(F)F (stereo not drawn) [Example 110, (1-((4-(2-aminobenzo[d]thiazol-4-yl)-2-sulfamoyl-3-(1H-tetrazol-5-yl)phenyl)sulfonyl)piperidin-2-yl)methanaminium 2,2,2-trifluoroacetate] | 0.346 nM | 0.0815 nM | 0.309 nM | 1.563 µM | 3.125 µM | 3.125 µM | 1.563 µM | 1.563 µM | 1.00 | –
6 | Nc1nc2c(-c3ccc(S(=O)(=O)NC4C5CNCC54)c(S(N)(=O)=O)c3-c3nnn[nH]3)cccc2s1.O=C(O)C(F)(F)F (stereo not drawn) [Example 111, 6-(4-(2-aminobenzo[d]thiazol-4-yl)-2-sulfamoyl-3-(1H-tetrazol-5-yl)phenylsulfonamido)-3-azabicyclo[3.1.0]hexan-3-ium 2,2,2-trifluoroacetate] | 0.429 nM | 0.0746 nM | 0.298 nM | 1.563 µM | 3.125 µM | 1.563 µM | 0.7813 µM | 1.563 µM | 0.50 | –
7 | Nc1nc2c(-c3ccc(S(=O)(=O)NCC4CNCCO4)c(S(N)(=O)=O)c3-c3nnn[nH]3)cccc2s1.O=C(O)C(F)(F)F (stereo not drawn) [Example 112, 2-((4-(2-aminobenzo[d]thiazol-4-yl)-2-sulfamoyl-3-(1H-tetrazol-5-yl)phenylsulfonamido)methyl)morpholin-4-ium 2,2,2-trifluoroacetate] | 0.318 nM | 0.046 nM | – | 1.563 µM | 3.125 µM | 1.563 µM | 1.563 µM | 1.563 µM | 1.00 | 0.219 nM
8 | Nc1nc2c(-c3ccc(S(=O)(=O)NCC4(N)CCOCC4)c(S(N)(=O)=O)c3-c3nnn[nH]3)cccc2s1.O=CO [Example 115, 4-((4-(2-aminobenzo[d]thiazol-4-yl)-2-sulfamoyl-3-(1H-tetrazol-5-yl)phenylsulfonamido)methyl)tetrahydro-2H-pyran-4-aminium formate] | 0.324 nM | 0.0602 nM | 0.388 nM | 3.125 µM | 6.25 µM | 3.125 µM | 3.125 µM | 3.125 µM | 1.00 | –
9 | CC(CN)NS(=O)(=O)c1ccc(-c2cccc3sc(N)nc23)c(-c2nnn[nH]2)c1S(N)(=O)=O.O=CO (stereo not drawn) [Example 116, 2-(4-(2-aminobenzo[d]thiazol-4-yl)-2-sulfamoyl-3-(1H-tetrazol-5-yl)phenylsulfonamido)propan-1-aminium formate] | 0.267 nM | 0.0239 nM | – | 1.563 µM | 3.125 µM | 1.563 µM | 0.7813 µM | 1.563 µM | 0.50 | 0.265 nM
10 | Nc1nc2c(-c3ccc(S(=O)(=O)NCC4CCNC4)c(S(N)(=O)=O)c3-c3nnn[nH]3)cccc2s1.O=CO (stereo not drawn) [Example 120, 3-((4-(2-aminobenzo[d]thiazol-4-yl)-2-sulfamoyl-3-(1H-tetrazol-5-yl)phenylsulfonamido)methyl)pyrrolidin-1-ium formate] | 0.258 nM | 0.0495 nM | – | 1.563 µM | 3.125 µM | 1.563 µM | 0.7813 µM | 1.563 µM | 0.50 | 0.202 nM
11 | CN(C[C@@H]1CCCN1)S(=O)(=O)c1ccc(-c2cccc3sc(N)nc23)c(-c2nnn[nH]2)c1S(N)(=O)=O.O=CO [Example 121, (S)-2-((4-(2-aminobenzo[d]thiazol-4-yl)-N-methyl-2-sulfamoyl-3-(1H-tetrazol-5-yl)phenylsulfonamido)methyl)pyrrolidin-1-ium formate] | 2.84 nM | 1.42 nM | 7.08 nM | 6.25 µM | 12.5 µM | 3.125 µM | 12.5 µM | 3.125 µM | 4.00 | –
